pIC50, pKd: −log10 of the molar value. Read-outs that look alike come from different tables or passages of the source. Positions of bridges follow the written chain, without caps; N, C: chain ends. Residues, ends and D or L forms follow the SMILES beside them.
Key:
[1] = tested on: HIV-1 IIIB (subtype B, X4); assay type: cell-based; conditions: IIIB (subtype B, X4)
Experimental: (§2) Briefly, 1×10^5/mL MT-2 or M7 cells were infected with different HIV-1 viruses at 100 TCID50 (50% tissue culture infective dose) in the presence or absence of peptides at graded concentrations overnight. Then the culture supernatants were replaced with equal volume of fresh medium. On the fourth day post-infection, supernatants were collected and mixed with equal volume of 5% Triton X-100. […] The IC50 values were calculated with CalcuSyn software [35–36], and inhibition curves of best fit were generated with GraphPad Prism.

[2] = tested on: HIV-1 Bal (subtype B, R5); assay type: cell-based; conditions: Bal (subtype B, R5)
Experimental: as §2

[3] = tested on: H9/HIV-1IIIB target cells with PBMC effector cells; assay: ADCC assay, 10E8-mediated lysis; assay type: cell-based, human; conditions: peptide up to 20 μM added to 10E8
Experimental: H9/HIV-1IIIB cells expressing HIV-1 Env (2.5 × 10^4 cells) as the target cells were seeded into a 96-well plate (25 μL/well), and the mixture of a serially diluted inhibitors and 10E8 (1.5 μg/mL) was added to the culture plate. PBMC (AllCells) as effector cells (2.5 × 10^4 cells in 25 μL) were cocultured with the mixture-treated target cells at 37 °C overnight, and the […] activity was measured using the CytoTox-ONE Homogeneous Membrane Integrity Assay (Promega).

rhesus monkey IgG = assay: Isothermal titration calorimetry (ITC); assay type: binding; conditions: 300 μM peptide injected into 30 μM rhesus monkey IgG, PBS, 25 °C
Experimental: ITC assay was performed with an ITC microcalorimeter instrument (NANO ITC, TA Instruments, Lindon, UT) as described previously. In brief, 300 μM peptides were dissolved in PBS and injected into the chamber containing 30 μM of rhesus monkey IgG. The experiments were carried out at 25 °C. The time between injections was 300 s, and the stirring speed was 300 rpm. The heats of dilution were determined in control experiments by injecting peptides into PBS and then subtracting from the heats produced in the corresponding peptide-IgG binding experiments. Data acquisition and analysis were performed using the Origin software, and the best fitting curves were generated with GraphPad Prism.

MT-2 cells = assay: Cytotoxicity assay (CCK-8); assay type: cell-based; conditions: up to 5 μM, 48 h, CCK-8; triplicate
Experimental: (§1) The potential cytotoxicity of peptides on MT-2 and M7 cells was measured by using the Cell Counting Kit-8 according to the manufacturer’s instructions (CCK-8, Dojindo Laboratories, Kumamoto, Japan). Briefly, 100 μL of a peptide at graded concentrations were added to equal volumes of cells (10^4 cells/well) in a 96-well plate. Cell viability was evaluated using the CCK-8 kit after incubation at 37 °C for 2 days. Incubation with CCK-8 reagents at 37 °C for another 4 h, the absorbance at 450 nm was measured with an ELISA reader, and the percentage of cytotoxicity was calculated.

M7 cells = assay: Cytotoxicity assay (CCK-8); assay type: cell-based; conditions: up to 5 μM, 48 h, triplicate
Experimental: as §1

HIV-1 IIIB = assay: Inhibitors alone or in combination against HIV-1 IIIB; assay type: cell-based
Experimental: The samples were serially diluted and tested for their inhibitory activity on HIV-1 infection as described above. The data were analyzed for synergistic effect by calculating the combination index (CI) with the CalcuSyn software. CI values of <0.95 and >1.05 indicate synergy and antagonism, respectively. CI <0.1, 0.1–0.3, 0.3–0.7, 0.7–0.85, and 0.85–0.90 indicate very strong synergism, strong synergism, synergism, moderate synergism, and slight synergism, respectively. Fold of dose reduction was calculated with the ratio of concentrations of inhibitor testing alone and in combination.

[4] = parameters: method as in PMID 16174446; conditions: reported value; cited from earlier work

CC[C@H](C)[C@H](NC(=O)[C@H](CC(C)C)NC(=O)[C@H](CCC(=O)O)NC(=O)[C@H](CCC(=O)O)NC(=O)[C@@H](NC(=O)[C@H](CCCCN)NC(=O)[C@H](CCCCN)NC(=O)[C@@H](NC(=O)[C@H](Cc1ccc(O)cc1)NC(=O)[C@H](CCC(=O)O)NC(=O)[C@H](CCC(=O)O)NC(=O)[C@@H](NC(=O)[C@H](CCCCN)NC(=O)[C@H](CCCCN)NC(=O)[C@H](CC(=O)O)NC(=O)[C@H](Cc1c[nH]c2ccccc12)NC(=O)[C@H](CCC(=O)O)NC(=O)[C@H](CCC(=O)O)NC(=O)[C@H](Cc1c[nH]c2ccccc12)NC(=O)[C@@H](NC(=O)[C@@H](N)CCSC)[C@@H](C)O)[C@@H](C)CC)[C@@H](C)O)[C@@H](C)CC)C(=O)N[C@@H](CCCCN)C(=O)N[C@@H](CCCCN)C(=O)N[C@@H](CO)C(=O)N[C@@H](CC(=O)O)C(=O)N[C@H]1CSSC[C@@H](C(=O)N[C@H](C(=O)O)[C@@H](C)O)NC(=O)[C@H](Cc2c[nH]c3ccccc23)NC(=O)[C@H](C(C)C)NC(=O)[C@H](CC(C)C)NC(=O)[C@H](CCC(=O)O)NC(=O)CNC(=O)[C@H](CC(C)C)NC(=O)[C@H](Cc2c[nH]cn2)NC(=O)[C@H](Cc2c[nH]c3ccccc23)NC(=O)[C@H](C)NC1=O [CP24-IBP] (H-MTWEEWDKKIEEYTKKIEELIKKSDCAWHLGELVWCT-OH; disulfide 26-36)
pIC50 [1]: 7.38
pIC50 [2]: 7.96

CC(C)C[C@@H]1NC(=O)[C@H](Cc2c[nH]cn2)NC(=O)[C@H](Cc2c[nH]c3ccccc23)NC(=O)[C@H](C)NC(=O)[C@@H](NC(=O)[C@@H](N)CC(=O)O)CSSC[C@@H](C(=O)N[C@H](C(=O)O)[C@@H](C)O)NC(=O)[C@H](Cc2c[nH]c3ccccc23)NC(=O)[C@H](C(C)C)NC(=O)[C@H](CC(C)C)NC(=O)[C@H](CCC(=O)O)NC(=O)CNC1=O [IBP]
effect on 10E8-mediated lytic activity [3]: remained about the same
pKd (rhesus monkey IgG): 5.61
in vitro cytotoxicity to MT-2 cells (MT-2 cells): no in vitro cytotoxicity
in vitro cytotoxicity to M7 cells (M7 cells): no in vitro cytotoxicity

CC1(C)CC(NC(=O)C(=O)Nc2ccc(Cl)cc2)CC(C)(C)N1 [NBD556]
pIC50 (HIV-1 IIIB; experiment N6 / NBD556, HIV-1 IIIB, read-out: IC50 Alone): 4.55
Dose reduction (HIV-1 IIIB; mixture N6 / NBD556, HIV-1 IIIB): 6.1 fold
pIC50 (HIV-1 IIIB; mixture N6 / NBD556, HIV-1 IIIB, read-out: IC50 In mixture): 5.34

enfuvirtide
reported t1/2 [4]: 3 h
